Here are results for 16 compounds from US20230107642A1 (Erasca, Inc., priority 2020, published 2023).

For one assay, the target named is T1, K-Ras G12C (Homo sapiens, UniProt P01116, G12C).
T1 construct: This protein contained 188 amino acids in total, including an N-terminal 6-Histidine tag; made in house; host or cells: E. coli BL21
The assay can be described thus: CAF assay (% CAF; method in Example 7, not in this part). Type of assay: binding. The conditions noted are these: 10 uM compound, 1 h incubation.
For `C=CC(=O)N1C[C@H](C)N(c2nc(=O)n3c4c(c(-c5cc(Cl)c(F)cc5F)c(C(F)(F)F)cc24)SC[C@@H]3COC)C[C@H]1C` [Example 492, (3S)-7-((2S,5R)-4-acryloyl-2,5-dimethylpiperazin-1-yl)-10-(5-chloro-2,4-difluorophenyl)-3-(methoxymethyl)-9-(trifluoromethyl)-2H-[1,4]thiazino[2,3,4-ij]quinazolin-5(3H)-one], the “% CAF @ 10 uM, 1h” value is given as 63.2%.

Turning to `C=CC(=O)N1C[C@H](C)N(c2nc(=O)n3c4c(c(-c5cc(Cl)c(F)cc5F)c(Cl)cc24)SC[C@@H]3COCCOC)C[C@H]1C` [Example 502, (3S)-7-((2S,5R)-4-acryloyl-2,5-dimethylpiperazin-1-yl)-9-chloro-10-(5-chloro-2,4-difluorophenyl)-3-((2-methoxyethoxy)methyl)-2H-[1,4]thiazino[2,3,4-ij]quinazolin-5(3H)-one], the “% CAF @ 10 uM, 1h” value is 65.1%.

`C=CC(=O)N1C[C@H](C)N(c2nc(=O)n3c4c(c(-c5ccc(F)cc5)c(Cl)cc24)SC[C@@H]3CN2CCN(CC(F)F)CC2)C[C@H]1C` [Example 515, (S)-7-((2S,5R)-4-acryloyl-2,5-dimethylpiperazin-1-yl)-9-chloro-3-((4-(2,2-difluoroethyl)piperazin-1-yl)methyl)-10-(4-fluorophenyl)-2H-[1,4]thiazino[2,3,4-ij]quinazolin-5(3H)-one]: the “% CAF @ 10 uM, 1h” value stood at 55.1%.

Consider `C=CC(=O)N1[C@H](C)CN(c2nc(=O)n3c4c(c(-c5ccc(F)cc5F)c(C(F)(F)F)cc24)SC[C@@H](OC)C3)C[C@@H]1C` [Example 503, (3S)-8-((3S,5R)-4-acryloyl-3,5-dimethylpiperazin-1-yl)-11-(2,4-difluorophenyl)-3-methoxy-10-(trifluoromethyl)-3,4-dihydro-2H,6H-[1,4]thiazepino[2,3,4-ij]quinazolin-6-one], for which the “% CAF @ 10 uM, 1h” value came out at 96%. On the same count and under the same terms, as for `C=CC(=O)N1CCN(c2nc(=O)n3c4c(c(-c5ccc(F)cc5F)c(C(F)(F)F)cc24)SC[C@@H]3COC)CC1` (atropisomer, axis not shown) [Example 578, (3S,10R)-7-(4-acryloylpiperazin-1-yl)-10-(2,4-difluorophenyl)-3-(methoxymethyl)-9-(trifluoromethyl)-2,3-dihydro-5H-[1,4]thiazino[2,3,4-ij]quinazolin-5-one], the figure is 98%. Same read-out and setting: to `C=CC(=O)N1C[C@H](C)N(c2nc(=O)n3c4c(c(-c5cc(Cl)c(F)cc5F)c(C(F)(F)F)cc24)SC[C@@H]3COCCOC)C[C@H]1C` (atropisomer, axis not shown) [Example 554, (3S,10S)-7-((2S,5R)-4-acryloyl-2,5-dimethylpiperazin-1-yl)-10-(5-chloro-2,4-difluorophenyl)-3-((2-methoxyethoxy)methyl)-9-(trifluoromethyl)-2H-[1,4]thiazino[2,3,4-ij]quinazolin-5(3H)-one] belongs 11.3%. The same measure, in the same setting: to `C=CC(=O)N1[C@H](C)CN(c2nc(=O)n3c4c(c(-c5ccc(F)cc5F)c(C(F)(F)F)cc24)SC[C@@H]3CN2C[C@@H]3C[C@H]2CO3)C[C@@H]1C` [Example 560, (3S)-3-(((1S,4S)-2-oxa-5-azabicyclo[2.2.1]heptan-5-yl)methyl)-7-((3S,5R)-4-acryloyl-3,5-dimethylpiperazin-1-yl)-10-(2,4-difluorophenyl)-9-(trifluoromethyl)-2,3-dihydro-5H-[1,4]thiazino[2,3,4-ij]quinazolin-5-one] belongs 95.6%. Turning to `C=CC(=O)N1[C@H](C)CN(c2nc(=O)n3c4c(c(-c5cc(Cl)c(F)cc5F)c(Cl)cc24)SC[C@H](OC)C3)C[C@@H]1C` [Example 542, (3R)-8-((3S,5R)-4-acryloyl-3,5-dimethylpiperazin-1-yl)-10-chloro-11-(5-chloro-2,4-difluorophenyl)-3-methoxy-3,4-dihydro-2H,6H-[1,4]thiazepino[2,3,4-ij]quinazolin-6-one], the “% CAF @ 10 uM, 1h” value was found to be 96%.

Still in this assay, the particulars now being: 10 uM, 60 min; Table 2a.
Consider `C[C@H]1CN(C(=O)/C=C/C(F)F)CCN1c1nc(=O)n2c3c(c(-c4cc(F)cc(Cl)c4)c(Cl)cc13)SCC2` [Example 63, (S,E)-9-chloro-10-(3-chloro-5-fluorophenyl)-7-(4-(4,4-difluorobut-2-enoyl)-2-methylpiperazin-1-yl)-2,3-dihydro-5H-[1,4]thiazino[2,3,4-ij]quinazolin-5-one], for which the “% CAF 10 uM @ 60 min” value is 75%. On to `C=C(F)C(=O)N1CCN(c2nc(=O)n3c4c(c(-c5cc(F)cc(Cl)c5)c(Cl)cc24)SCC3)[C@@H](C)C1` [Example 64, (S)-9-chloro-10-(3-chloro-5-fluorophenyl)-7-(4-(2-fluoroacryloyl)-2-methylpiperazin-1-yl)-2,3-dihydro-5H-[1,4]thiazino[2,3,4-ij]quinazolin-5-one], for which the “% CAF 10 uM @ 60 min” value was determined as 3%.

The assay is the same for the next values; noted with them: 10 uM, 1 h; Table 3.
As for `C[C@H]1CN(C(=O)/C=C/C(F)F)CCN1c1nc(=O)n2c3c(c(-c4cc(F)cc(Cl)c4)c(Cl)cc13)SCC2` [Example 63, (S,E)-9-chloro-10-(3-chloro-5-fluorophenyl)-7-(4-(4,4-difluorobut-2-enoyl)-2-methylpiperazin-1-yl)-2,3-dihydro-5H-[1,4]thiazino[2,3,4-ij]quinazolin-5-one], the “% CAF @ 10 uM, 1h” value is 67%. On the same count and under the same terms, as for `C=CC(=O)N1CCN(c2nc(=O)n3c4c(c(-c5cc(OC(F)F)ccc5F)c(Cl)cc24)SCC3)[C@@H](C)C1` [Example 163, 7-((S)-4-acryloyl-2-methylpiperazin-1-yl)-9-chloro-10-(5-(difluoromethoxy)-2-fluorophenyl)-2,3-dihydro-5H-[1,4]thiazino[2,3,4-ij]quinazolin-5-one], the figure is 41.4%; as for `C=CC(=O)N1CCN(c2nc(=O)n3c4c(c(-c5ccc(F)cc5F)c(C5CC5)cc24)SCC3)[C@@H](C)C1` [Example 143, 7-((S)-4-acryloyl-2-methylpiperazin-1-yl)-9-cyclopropyl-10-(2,4-difluorophenyl)-2,3-dihydro-5H-[1,4]thiazino[2,3,4-ij]quinazolin-5-one], 95.4%.

With `C=C(F)C(=O)N1CCN(c2nc(=O)n3c4c(c(-c5cc(F)cc(Cl)c5)c(Cl)cc24)SCC3)[C@@H](C)C1` [Example 64, (S)-9-chloro-10-(3-chloro-5-fluorophenyl)-7-(4-(2-fluoroacryloyl)-2-methylpiperazin-1-yl)-2,3-dihydro-5H-[1,4]thiazino[2,3,4-ij]quinazolin-5-one], the “% CAF @ 10 uM, 1h” value stood at 75%.

The assay is the same for the next values; noted with them: 10 μM, 1 h; Table 4.
As for `C=CC(=O)N1CCN(c2nc(=O)n3c4c(c(-c5c(F)cc(F)cc5F)c(Cl)cc24)SC[C@@H]3CCCN2C[C@@H]3C[C@H]2CO3)[C@@H](C)C1` [Example 340, (S)-3-(3-((1S,4S)-2-oxa-5-azabicyclo[2.2.1]heptan-5-yl)propyl)-7-((S)-4-acryloyl-2-methylpiperazin-1-yl)-9-chloro-10-(2,4,6-trifluorophenyl)-2H-[1,4]thiazino[2,3,4-ij]quinazolin-5(3H)-one], the “% CAF @ 10 μM, 1 h” value is 96.9%.

Regarding `C=CC(=O)N1CCN(c2nc(=O)n3c4c(c(-c5c(F)cc(F)cc5F)c(Cl)cc24)SC[C@H]3CC2CCN(C)CC2)[C@@H](C)C1` [Example 344, (R)-7-((S)-4-acryloyl-2-methylpiperazin-1-yl)-9-chloro-3-((1-methylpiperidin-4-yl)methyl)-10-(2,4,6-trifluorophenyl)-2H-[1,4]thiazino[2,3,4-ij]quinazolin-5(3H)-one], the “% CAF @ 10 μM, 1 h” value came to 94.8%.

With `C=CC(=O)N1CCN(c2nc(=O)n3c4c(c(-c5c(F)cc(F)cc5F)c(Cl)cc24)SC[C@@H]3CC2CCN(C)CC2)[C@@H](C)C1` [Example 343, (S)-7-((S)-4-acryloyl-2-methylpiperazin-1-yl)-9-chloro-3-((1-methylpiperidin-4-yl)methyl)-10-(2,4,6-trifluorophenyl)-2H-[1,4]thiazino[2,3,4-ij]quinazolin-5(3H)-one], the “% CAF @ 10 μM, 1 h” value amounted to 96.7%. Still for that read-out and setting: to `C=CC(=O)N1CCN(c2nc(=O)n3c4c(c(-c5ccc(F)cc5F)c(Cl)cc24)SC[C@@H]3CN2CCN(C3COC3)CC2)[C@@H](C)C1` [Example 355, (3S)-7-((S)-4-acryloyl-2-methylpiperazin-1-yl)-9-chloro-10-(2,4-difluorophenyl)-3-((4-(oxetan-3-yl)piperazin-1-yl)methyl)-2H-[1,4]thiazino[2,3,4-ij]quinazolin-5(3H)-one] belongs 96%.
